SMILES strings stand for the structures.

Test in all cases: microbe, parasite or virus in culture
Common to all, as to type: cell-based, human immunodeficiency virus type 1 (HIV-1)

In experiment [1] the test system is wild type HIV-1. The note with it: Human immunodeficiency virus 1, Hela-JC53, read-out: EC50 WT (nM).
The test system of experiment [2] is HIV-1 Y181C. Conditions: Human immunodeficiency virus 1, HeLa, read-out: EC50 Y181C (nM).
The subject of experiment [3] is HIV-1 Y188L. The note with it: Human immunodeficiency virus 1, HeLa, read-out: EC50 Y188L (nM).
Experiment [4] has as its system HIV-1 L100I-K103N. Conditions: Human immunodeficiency virus 1, HeLa, read-out: EC50 L100I-K103N (nM).

For the molecule `Cc1cc(C#N)cc(C)c1Oc1nc(Nc2ccc(C#N)cc2)nc2sccc12` [Cpd 7], the EC50 is less than 10 nM in experiment [1], less than 10 nM in experiment [2], less than 10 nM in experiment [3] and 10 to 100 nM in experiment [4].

Consider `Cc1cc(C)c(Nc2nc(Nc3ccc(C#N)cc3)nc3ccsc23)c(C)c1` [Cpd 2], for which the concentration for a half-maximal effect (EC50) in experiment [1] was less than 10 nM; in experiment [2] it was 10 to 100 nM; in experiment [3], more than 100 nM; in experiment [4], more than 100 nM.

As to `Cc1cc(C)c(Nc2nc(Nc3ccc(C#N)cc3)nc3c(C)csc23)c(C)c1` [Cpd 8], the figures for the EC50 in experiment [1], in experiment [2] and in experiment [3] were less than 10 nM, 10 to 100 nM and 10 to 100 nM, respectively.

In the case of `Cc1cc(C)c(Oc2nc(Nc3ccc(C#N)cc3)nc3c(C)csc23)c(C)c1` [Cpd 6], the concentration for a half-maximal effect (EC50) in experiment [1], in experiment [2], in experiment [3] and in experiment [4] was 10 to 100 nM throughout.

With `Cc1cc(C#N)cc(C)c1Oc1nc(Nc2ccc(C#N)cc2)nc2c(C)csc12` [Cpd 9], the EC50 in experiment [1], in experiment [2], in experiment [3] and in experiment [4] was less than 10 nM each time.

In the case of `Cc1cc(C)c(Oc2nc(Nc3ccc(C#N)cc3)nc3sc4c(c23)CCCC4)c(C)c1` [Cpd 5], the half-maximal effective concentration (EC50) is 10 to 100 nM in experiment [1], more than 100 nM in experiment [2], more than 100 nM in experiment [3] and more than 100 nM in experiment [4].

As for `Cc1cc(C)c(Oc2nc(Nc3ccc(C#N)cc3)nc3ccsc23)c(C)c1` [Cpd 1], the EC50 was less than 10 nM in experiment [1], less than 10 nM in experiment [2], less than 10 nM in experiment [3] and 10 to 100 nM in experiment [4].

As to `Cc1cc(C)c(Oc2nc(Nc3ccc(C#N)cc3)nc3sccc23)c(C)c1` [Cpd 4], the EC50 was less than 10 nM in experiment [1], 10 to 100 nM in experiment [2], 10 to 100 nM in experiment [3] and 10 to 100 nM in experiment [4].

In the case of `Cc1cc(C#N)cc(C)c1Oc1nc(Nc2ccc(C#N)cc2)nc2ccsc12` [Cpd 3], the EC50 was less than 10 nM in experiment [1], 10 to 100 nM in experiment [2], less than 10 nM in experiment [3] and less than 10 nM in experiment [4].

By EC50 is commonly meant the concentration giving half of the maximal effect.
